Where two headings read alike, the source gives them in different places. Marks after values point to notes of the source that are not given here. *1 amine or outer side, *2 acyl side, *3 side chain or, on linkers, in order; H or OH if unused. Where a SMILES comes first, the peptide text is derived from it. Bridges are numbered along the chain shown (N, C = ends). Roman numbers before positions name the chains, in order. [ ]: non-standard residue; d: D form. The star is where a group is joined. Phe(2,4,6-Me3) = Cc1cc(C)c(C[C@H](N)C(=O)O)c(C)c1; X1 = Cc1cc(C)c(CC(N[*:1])C(=O)[*:2])c(C)c1; pGlu = O=C1CC[C@@H](C(=O)O)N1; Octanoyl = CCCCCCCC(=O)*
Assays:
[1] = system: RH30 rhabdomyosarcoma cells; assay: Matrigel-coated transwell invasion assay, RH30 cells; type: cell-based; conditions: % invasive cells vs non-treated control
Description: (§1) 10^5 RH30 or RD cells were plated in the upper chamber of a Matrigel-coated transwell (Corning) in 0.1 mL medium without FBS. Cells were previously incubated with different concentrations (0 nM, 100 nM, 200 nM, 500 nM and 1000 nM) of the peptides and peptide dimer for 48 hours, being also present in the medium during the cell invasion assay. In the lower chamber, 0.6 mL of medium with FBS was added. Cells were incubated at 37° ° C. for 24 hours.
(§2) After that, cells were fixed with 4% paraformaldehyde (Sigma) for 10 minutes, followed by washing with PBS. After removal of the Matrigel and remaining cells from the upper face of the membrane with a cotton swab, the cells present on the lower face were stained with a Hoechst dilution (Sigma) and were counted (5 fields for each well) with an inverted fluorescence microscope Nikon with a 10× objective. All experiments were made in triplicate. In Table 6 the % Invasiveness represents the mean percentage of invasive cells with respect to their controls.

[2] = In vitro stability, half-life in human plasma; type: in vitro ADME; conditions: 90% human plasma, 37° C., RP-HPLC, read-out: t½ (hours) in human plasma (converted)
Description: The peptides and peptide dimer synthesized and prepared in accordance with Example 1 were dissolved in water at a concentration of 6 mg/mL and warmed up to 37° C.
Human plasma was obtained as a lyophilized solid (K3 EDTA Plasma, BBI Solutions, code S112-1), reconstituted with sterile 0.9% sodium chloride solution and stored at −20° C. Human plasma was thawed and incubated at 37° C. before use.
The peptides and peptide dimer were incubated in 90% human plasma at 37° C. for different times and then precipitated with two volume equivalents of methanol. The samples were cooled in an acetone-carbon dioxide bath for a few seconds and centrifuged for 12 minutes at 4° C. at approximately 10,000 rpm. The supernatant was filtered with a 0.45 μm PVDF filter and analyzed in triplicate by RP-HPLC using an isocratic method (Eluent A=0.1% TFA in water; Eluent B=0.07% TFA in ACN, Column=Kromasil C8, 100 Å, 5 μm, 250×4.6 mm, Flow=1 mL/min, Wavelength: 220 nm, Injection volume=20 μL, Temperature=60° C.). The disappearance of the compound was determined in relation to the area of the initial time to calculate its half-life.

[3] = system: RD rhabdomyosarcoma cells; assay: Matrigel-coated transwell invasion assay, RD cells; type: cell-based; conditions: % invasive cells vs non-treated control
Description: as §1, §2

[4] = 500 nM peptide, listed as Octanoyl-SEQ ID NO: 5—NH2

Q: With `CCCCCCCC(=O)N[C@@H](CCCCN)C(=O)N[C@@H](CCCNC(=N)N)C(=O)N[C@@H](CC(=O)O)C(=O)N[C@@H](CO)C(=O)N[C@@H](CO)C(=O)N[C@@H](CC(N)=O)C(=O)N[C@@H](CO)C(=O)N[C@@H](CCSC)C(=O)N[C@@H](CC(=O)O)C(=O)N[C@@H](CC(C)C)C(=O)N1CCC[C@H]1C(=O)N[C@@H](CCC(=O)O)C(=O)NC(Cc1c(C)cc(C)cc1C)C(=O)N[C@@H](CCCCN)C(N)=O` (stereo partly drawn) [Octanoyl-SEQ ID NO: 8-NH2, Octanoyl-Lys-Arg-Asp-Ser-Ser-Asn-Ser-Met-Asp-Leu-Pro-Glu-Msa-Lys-NH2] (Octanoyl-KRDSSNSMDLPE[X1]K-NH2) as the compound, how does the “% Invasiveness RH30” value ([1]; 100 nM peptide) read?
A: 88.38%

Q: And the “% Invasiveness RH30” value ([1]; 200 nM peptide)?
A: 99.30%

Q: And the “% Invasiveness RH30” value ([1]; 500 nM peptide)?
A: 71.92%

Q: And the “% Invasiveness RH30” value ([1]; 1000 nM peptide)?
A: 74.06%

Q: And the half-life at 0.6 mg/mL [2]?
A: 3.6 h

Q: And the “% Invasiveness RD” value ([3]; 100 nM peptide)?
A: 75.55%

Q: And the “% Invasiveness RD” value ([3]; 200 nM peptide)?
A: 113.22%

Q: And the “% Invasiveness RD” value ([3]; 500 nM peptide)?
A: 63.27%

Q: And the “% Invasiveness RD” value ([3]; 1000 nM peptide)?
A: 15.89* %

Q: What about the “% Invasiveness RD” value ([3]; 1000 nM peptide, listed as Octanoyl-SEQ ID NO: 8—NH2) of the same compound?
A: significant decrease

Q: Which “% Invasiveness RH30” value ([1]; 100 nM peptide) does the source give for `CCCCCCCC(=O)N[C@@H](CCCCN)C(=O)N[C@@H](CCCNC(=N)N)C(=O)N[C@@H](CC(=O)O)C(=O)N[C@@H](CO)C(=O)N[C@@H](CO)C(=O)N[C@@H](CC(N)=O)C(=O)N[C@@H](CO)C(=O)N[C@@H](CS)C(=O)N[C@@H](CC(=O)O)C(=O)N[C@@H](CC(C)C)C(=O)N1CCC[C@H]1C(=O)N[C@@H](CCC(=O)O)C(=O)N[C@@H](Cc1c(C)cc(C)cc1C)C(=O)N[C@@H](CCCCN)C(N)=O` [Octanoyl-SEQ ID NO: 5-NH2, Octanoyl-Lys-Arg-Asp-Ser-Ser-Asn-Ser-Cys-Asp-Leu-Pro-Glu-Msa-Lys-NH2] (Octanoyl-KRDSSNSCDLPE[Phe(2,4,6-Me3)]K-NH2) here?
A: 120.81%

Q: What about the “% Invasiveness RH30” value ([1]; 500 nM peptide) of the same compound?
A: 41.12* %

Q: What about the “% Invasiveness RH30” value [1, 4] of the same compound?
A: significant reduction

Q: What about the half-life at 0.6 mg/mL [2] of the same compound?
A: 0.15 h

Q: What about the “% Invasiveness RD” value ([3]; 100 nM peptide) of the same compound?
A: 56.90%

Q: And the “% Invasiveness RD” value ([3]; 500 nM peptide)?
A: 14.16* %

Q: What about the “% Invasiveness RD” value [3, 4] of the same compound?
A: significant decrease

Q: With `Cc1cc(C)c(C[C@H](NC(=O)[C@H](CCC(=O)O)NC(=O)[C@@H]2CCCN2C(=O)[C@H](CC(C)C)NC(=O)[C@H](CC(=O)O)NC(=O)[C@H](CSSC[C@H](NC(=O)[C@H](CO)NC(=O)[C@H](CC(N)=O)NC(=O)[C@H](CO)NC(=O)[C@H](CO)NC(=O)[C@H](CC(=O)O)NC(=O)[C@H](CCCNC(=N)N)NC(=O)[C@H](CCCCN)NC(=O)[C@@H]2CCC(=O)N2)C(=O)N[C@@H](CC(=O)O)C(=O)N[C@@H](CC(C)C)C(=O)N2CCC[C@H]2C(=O)N[C@@H](CCC(=O)O)C(=O)N[C@@H](Cc2c(C)cc(C)cc2C)C(=O)N[C@@H](CCCCN)C(N)=O)NC(=O)[C@H](CO)NC(=O)[C@H](CC(N)=O)NC(=O)[C@H](CO)NC(=O)[C@H](CO)NC(=O)[C@H](CC(=O)O)NC(=O)[C@H](CCCNC(=N)N)NC(=O)[C@H](CCCCN)NC(=O)[C@@H]2CCC(=O)N2)C(=O)N[C@@H](CCCCN)C(N)=O)c(C)c1` [(SEQ ID NO: 6-NH2)2 (disulfide bridge), (Pyr-Lys-Arg-Asp-Ser-Ser-Asn-Ser-Cys-Asp-Leu-Pro-Glu-Msa-Lys-NH2)2 (disulfide bridge)] (I: [pGlu]KRDSSNSCDLPE[Phe(2,4,6-Me3)]K-NH2 / II: [pGlu]KRDSSNSCDLPE[Phe(2,4,6-Me3)]K-NH2; disulfide I:9-II:9) as the compound, how does the “% Invasiveness RH30” value ([1]; 100 nM peptide) read?
A: 82.46* %

Q: And the “% Invasiveness RH30” value ([1]; 100 nM peptide, listed as (SEQ ID NO: 6—NH2)2)?
A: significant reduction

Q: What about the “% Invasiveness RH30” value ([1]; 200 nM peptide) of the same compound?
A: 70.84* %

Q: What about the “% Invasiveness RH30” value ([1]; 500 nM peptide) of the same compound?
A: 78.26* %

Q: And the “% Invasiveness RH30” value ([1]; 1000 nM peptide)?
A: 57.59* %

Q: What about the half-life at 0.6 mg/mL [2] of the same compound?
A: 33.1 h

Q: And the “% Invasiveness RD” value ([3]; 500 nM peptide)?
A: 64.71%

Q: What about the “% Invasiveness RD” value ([3]; 1000 nM peptide) of the same compound?
A: 25.36* %

Q: And the “% Invasiveness RD” value ([3]; 1000 nM peptide, listed as (SEQ ID NO: 6—NH2)2)?
A: significant decrease

Q: Which “% Invasiveness RH30” value ([1]; 100 nM peptide) does the source give for `CC(=O)N[C@@H](CCCCN)C(=O)N[C@@H](CCCNC(=N)N)C(=O)N[C@@H](CC(=O)O)C(=O)N[C@@H](CO)C(=O)N[C@@H](CO)C(=O)N[C@@H](CC(N)=O)C(=O)N[C@@H](CO)C(=O)N[C@@H](CS)C(=O)N[C@@H](CC(=O)O)C(=O)N[C@@H](CC(C)C)C(=O)N1CCC[C@H]1C(=O)N[C@@H](CCC(=O)O)C(=O)NC(Cc1c(C)cc(C)cc1C)C(=O)N[C@@H](CCCCN)C(N)=O` (stereo partly drawn) [Ac-SEQ ID NO: 5-NH2, Ac-Lys-Arg-Asp-Ser-Ser-Asn-Ser-Cys-Asp-Leu-Pro-Glu-Msa-Lys-NH2] (Ac-KRDSSNSCDLPE[X1]K-NH2) here?
A: 24.83* %

Q: And the “% Invasiveness RH30” value ([1]; 100 nM peptide, listed as Ac-SEQ ID NO: 5—NH2)?
A: significant reduction

Q: What about the “% Invasiveness RH30” value ([1]; 500 nM peptide) of the same compound?
A: 18.49* %

Q: What about the half-life at 0.6 mg/mL [2] of the same compound?
A: 0.23 h

Q: And the “% Invasiveness RD” value ([3]; 100 nM peptide)?
A: 100.80%

Q: And the “% Invasiveness RD” value ([3]; 500 nM peptide)?
A: 35.59%

Q: Which results are given for “Ac-RDSSNSCDLPEF-NH2 [Ac-SEQ ID NO: 10-NH2, Ac-Arg-Asp-Ser-Ser-Asn-Ser-Cys-Asp-Leu-Pro-Glu-Phe-NH2, reference compound]”?
A: % Invasiveness RH30 ([1]; 100 nM peptide): 83.91%; % Invasiveness RH30 ([1]; 500 nM peptide): 113.68%; half-life at 0.6 mg/mL ([2]; human plasma (K3 EDTA)): 0.32 h; % Invasiveness RD ([3]; 100 nM peptide): 106.77%; % Invasiveness RD ([3]; 500 nM peptide): 59.90%
